From patent US6340694B1, “Diarylbenzopyran derivatives as cyclooxygenase-2 inhibitors” (Pacific Corporation, priority 1998, dated 2002) come the findings set out here.

Molecules are shown by their SMILES.

The test system of data set [1] is edema in mouse's foot induced by carrageenan. Briefly: Depressant action on edema in mouse's foot induced by carrageenan. Format: in vivo, Male Sprague-Dawley rat. To be noted: po; for inhibition in vivo at 30 mg/kg: 30 mg/kg p.o.; for inhibition in vivo at 50 mg/kg: 50 mg/kg p.o. The protocol: (§1) Regarding the compounds in some of the above Examples and indomethacin, depressant action on edema in mouse's ear and depressant action on edema in mouse's foot being induced by carrageenan are being measured by the following 2 methods. And the results of the depressant action on edema in mouse's ear and depressant action on edema in mouse's foot being induced by carrageenan are shown in Table 5.
2. Measurement of Depressant Action on Edama in Mouse's Foot Induced by Carrageenan
At 1 hour after oral administering to Male-Sprague-Dawley-white mouse, weighing 150˜200 g, with a suspended solution of appropriate amount of sample in 0.5% of carboxymethyl cellulose and 0.2% of TWEN solution, edema on the right foot of mouse was induced by injecting 0.1 ml(1%) of carrageenan-saline solution. Right after the inducement of edema by carrageenan and 3 hours later, the edema rate was estimated by measuring white mouse's foot volume with Displacement Plethysmometer(Ugo Basile, Italy). Carrageenan injection Drug was administered 1 hour before the carrageenan injection. Depressant rate of edema is produced by the following equation 1.
% Depressant rate of edema=(1 ? Vtreated group/ ? Vcontrol group)×100 ? V: change of foot volume [Equation 1]

The subject of data set [2] is edema in mouse's ear. Briefly: Depressant action on edema in mouse's ear (TPA-induced, myeloperoxidase). The class given is in vivo, ICR mouse. To be noted: topical on ear, TPA 25 μg, 5 hours. On the procedure: as §1
1. Measurement of Depressant Action on Edama in Mouse's Ear
At 30 minutes after coating the left ear of ICR mouse, weighing 20 g, with a solution of appropriate amount of sample in 20 μl of mixed solvent DMSO:acetone(1:9), 25 μg of TPA(tetradecanoylphorbol acetate) was coated on both ears. The determination of depressant action on edama was made in 5 hours later by the number of neutral granulocyte gathering in the ear after inducing TPA inflammation. The number of neutral granulocyte was estimated by measuring the activation of myeloperoxidase.

Data set [3] deals with T1, COX-2 (Mus musculus, UniProt Q05769).
T1 construct: endogenous in cells; host or cells: peritoneal macrophages of C57BL/6 mouse, aspirin-pretreated, LPS-induced
T1 sequence (Q05769 18-604): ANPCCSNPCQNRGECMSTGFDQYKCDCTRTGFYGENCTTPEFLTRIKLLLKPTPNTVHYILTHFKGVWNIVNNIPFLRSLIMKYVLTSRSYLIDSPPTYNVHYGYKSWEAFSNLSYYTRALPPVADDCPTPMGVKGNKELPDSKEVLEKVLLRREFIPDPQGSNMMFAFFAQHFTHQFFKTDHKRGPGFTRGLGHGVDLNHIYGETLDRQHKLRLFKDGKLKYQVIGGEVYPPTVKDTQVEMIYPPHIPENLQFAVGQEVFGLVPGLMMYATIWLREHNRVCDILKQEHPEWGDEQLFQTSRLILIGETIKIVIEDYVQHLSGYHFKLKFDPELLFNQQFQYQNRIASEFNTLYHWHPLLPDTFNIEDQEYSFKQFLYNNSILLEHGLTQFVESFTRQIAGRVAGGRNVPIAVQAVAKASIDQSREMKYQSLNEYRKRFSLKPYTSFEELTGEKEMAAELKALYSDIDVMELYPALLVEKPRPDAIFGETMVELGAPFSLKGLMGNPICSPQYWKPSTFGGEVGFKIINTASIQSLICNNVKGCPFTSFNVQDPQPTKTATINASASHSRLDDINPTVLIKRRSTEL
Briefly: Evaluation of COX-2's inhibition efficacy (PGE2 radioimmuno assay, LPS-induced, aspirin-pretreated peritoneal macrophages). The note with it: for inhibition at 0.1 µg/mL: 0.1 μg/ml; for inhibition at 1 µg/mL: 1 μg/ml; for inhibition at 10 µg/mL: 10 μg/ml. Format: cell-based, C57BL/6 mouse. The gist of the method: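 C57BL/6 mouse peritoneal macrophages, adhered 2 h at 37 °C, were LPS-stimulated to induce COX-2. Cells were then treated 10 min with compound, followed by 10 min with 10 μM arachidonic acid (final). PGE2 in the supernatant was quantified by radioimmunoassay.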

Data set [4] deals with T2, COX-1 (Mus musculus, UniProt P22437).
T2 construct: there is no pre-treatment of aspirin and LPS in the adhesion of macrophage; endogenous in cells; host or cells: peritoneal macrophages of C57BL/6 mouse, without aspirin and LPS pre-treatment
T2 sequence (P22437 27-602): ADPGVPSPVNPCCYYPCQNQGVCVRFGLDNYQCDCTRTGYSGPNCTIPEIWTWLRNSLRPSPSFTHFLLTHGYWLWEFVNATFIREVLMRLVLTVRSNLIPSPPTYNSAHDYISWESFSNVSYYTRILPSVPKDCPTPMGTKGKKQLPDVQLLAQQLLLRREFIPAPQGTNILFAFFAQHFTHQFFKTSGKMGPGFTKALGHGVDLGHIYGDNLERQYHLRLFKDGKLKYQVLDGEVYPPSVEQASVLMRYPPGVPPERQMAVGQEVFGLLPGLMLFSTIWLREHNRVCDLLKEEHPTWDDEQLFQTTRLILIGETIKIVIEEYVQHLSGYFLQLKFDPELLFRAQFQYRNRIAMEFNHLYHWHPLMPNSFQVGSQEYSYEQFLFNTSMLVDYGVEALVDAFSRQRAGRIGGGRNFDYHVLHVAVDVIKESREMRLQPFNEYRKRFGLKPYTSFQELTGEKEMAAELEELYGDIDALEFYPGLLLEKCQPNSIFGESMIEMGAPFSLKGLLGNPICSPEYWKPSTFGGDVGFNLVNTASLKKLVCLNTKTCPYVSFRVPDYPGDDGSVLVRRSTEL
Briefly: Evaluation of COX-1's inhibition efficacy (macrophages without aspirin and LPS pre-treatment). The class given is cell-based, C57BL/6 mouse. The note with it: for inhibition at 10 µg/mL: 10 μg/ml; for inhibition at 1 µg/mL: 1 μg/ml. An outline of the steps:
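C57BL/6 mouse peritoneal macrophages (1×10^6 cells/mL) were adhered for 2 h at 37° C without aspirin or LPS pretreatment. Compound was given for 10 min at 37° C, then arachidonic acid (10 μM final) for 10 min. Supernatant PGE2 was measured by radioimmunoassay, with 100% activity set as PGE2 with versus without arachidonic acid.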

Setting [5] is: 3 h, read-out: depressant rate of edema rate induced by carrageenan (oral administration), % depression.

Take `CS(=O)(=O)c1ccc(-c2oc3ccccc3c(=S)c2-c2ccc(F)cc2)cc1` [Example 36, 3-(4-Fluorophenyl)-2-(4-(methylsulfonyl)phenyl)-4H-1-benzopyran-4-thione]: the inhibition in vivo at 30 mg/kg in data set [1] (setting [5]) amounted to 20%. Moreover, the “depressant rate of ear edema, ED50” value in data set [2] is given as 1.0 mg/ear, ED50. Besides, in data set [3], the inhibition at 0.1 µg/mL worked out at 56%, the inhibition at 1 µg/mL turned out to be 80% and the inhibition at 10 µg/mL was determined as 100%. The inhibition at 10 µg/mL in data set [4] is below 5%.
Take `CS(=O)(=O)c1ccc(-c2oc3ccccc3c(=O)c2-c2cccnc2)cc1` [Example 15, 2-(4-(Methylsulfonyl)phenyl)-3-(3-pyridinyl)-4H-1-benzopyran-4-one]: the melting point lay within 220 to 221 °C. The inhibition in vivo at 30 mg/kg in data set [1] (setting [5]) amounted to 41%. Also, in data set [3], the inhibition at 1 µg/mL was 83% and the inhibition at 10 µg/mL was 90%. Further, the inhibition at 10 µg/mL in data set [4] is 13%.
For the molecule `COc1ccc(-c2c(-c3ccc(S(C)(=O)=O)cc3)oc3ccccc3c2=O)cc1` [Example 10, 3-(4-Methoxyphenyl)-2-(4-(methylsulfonyl)phenyl)-4H-1-benzopyran-4-one], the melting point was in the range of 212 to 213 °C. The “depressant rate of ear edema, ED50” value in data set [2] is given as 0.6 mg/ear, ED50. In data set [3], the inhibition at 0.1 µg/mL worked out at 14%, the inhibition at 1 µg/mL is 67% and the inhibition at 10 µg/mL was 86%. Moreover, the inhibition at 10 µg/mL in data set [4] is below 5%.
Turning to `COc1ccc2c(c1)c(CC(=O)O)c(C)n2C(=O)c1ccc(Cl)cc1` [indomethacine, reference compound], the ED50 in data set [1] (3 hours after carrageenan, read-out: depressant rate of edema rate induced by carrageenan (oral administration), ED50) is 4.3 mg/kg. For the same molecule, the “depressant rate of ear edema, ED50” value in data set [2] is listed as 0.4 mg/ear, ED50.
Consider `CS(=O)(=O)c1ccc(-c2oc3ccccc3c(=O)c2-c2ccc(F)c(Cl)c2)cc1` [Example 26, 3-(3-Chloro-4-fluorophenyl)-2-(4-(methylsulfonyl)phenyl)-4H-1-benzopyran-4-one], for which the inhibition in vivo at 50 mg/kg in data set [1] (setting [5]) stood at 23%. Also, the “depressant rate of ear edema, ED50” value in data set [2] was 0.6 mg/ear, ED50.
Turning to `CS(=O)(=O)c1ccc(-c2oc3ccccc3c(=O)c2-c2ccccc2F)cc1` [Example 12, 3-(2-Fluorophenyl)-2-(4-(methylsulfonyl)phenyl)-4H-1-benzopyran-4-one], in data set [1] (setting [5]), the inhibition in vivo at 30 mg/kg was found to be 20%. The “depressant rate of ear edema, ED50” value in data set [2] is 0.4 mg/ear, ED50.
With `CS(=O)(=O)c1ccc(-c2oc3ccccc3c(=O)c2-c2ccc(Br)cc2)cc1` [Example 28, 3-(4-Bromophenyl)-2-(4-(methylsulfonyl)phenyl)-4H-1-benzopyran-4-one], the “depressant rate of ear edema, ED50” value in data set [2] is reported as 0.8 mg/ear, ED50.
As to `CS(=O)(=O)c1ccc(-c2oc3ccccc3c(=O)c2-c2ccc(Cl)c(Cl)c2)cc1` [Example 11, 3-(3,4-Dichlorophenyl)-2-(4-(methylsulfonyl)phenyl)-4H-1-benzopyran-4-one], the melting point lay in the range of 164 to 165 °C. The inhibition in vivo at 30 mg/kg in data set [1] (setting [5]) stood at 17%. In data set [3], the inhibition at 0.1 µg/mL amounted to 46% and the inhibition at 1 µg/mL is 89%. Further, the inhibition at 10 µg/mL in data set [4] was below 5%.
With `CS(=O)(=O)c1ccc(-c2oc3ccc(F)cc3c(=O)c2-c2cccnc2)cc1` [Example 34, 6-Fluoro-2-(4-(methylsulfonyl)phenyl)-3-(3-pyridinyl)-4H-1-benzopyran-4-one], in data set [1] (3 h, 3 mg/kg p.o., read-out: depressant rate of edema rate induced by carrageenan (oral administration), % depression), the inhibition in vivo at 3 mg/kg worked out at 23%. Besides, in data set [3], the inhibition at 1 µg/mL worked out at 66% and the inhibition at 10 µg/mL stood at 78%. Moreover, the inhibition at 10 µg/mL in data set [4] was found to be 12%.
In turn, `NS(=O)(=O)c1ccc(-c2oc3ccc(F)cc3c(=O)c2-c2ccc(F)cc2)cc1` [Example 48, 2-(4-(Aminosulfonyl)phenyl)-6-fluoro-3-(4-fluorophenyl)-4H-1-benzopyran-4-one] registered a melting point of 224 to 226 °C. Also, in data set [3], the inhibition at 0.1 µg/mL amounted to 63% and the inhibition at 1 µg/mL came out at 100%. Besides, in data set [4], the inhibition at 1 µg/mL amounted to 36% and the inhibition at 10 µg/mL was found to be 48%.
Take `Cc1ccc(-c2c(-c3ccc(S(C)(=O)=O)cc3)oc3ccccc3c2=O)cn1` [Example 20, 3-(2-Methyl-5-pyridinyl)-2-(4-(methylsulfonyl)phenyl)-4H-1-benzopyran-4-one]: the melting point lay within 195 to 196 °C. In addition, in data set [3], the inhibition at 1 µg/mL is below 5% and the inhibition at 10 µg/mL is 85%. Further, the inhibition at 10 µg/mL in data set [4] was below 5%.
Molecule `NS(=O)(=O)c1ccc(-c2oc3ccccc3c(=O)c2-c2ccccc2F)cc1` [Example 58, 2-(4-(Aminosulfonyl)phenyl)-3-(2-fluorophenyl)-4H-1-benzopyran-4-one] came in with a melting point of 215 to 217 °C. In addition, in data set [3], the inhibition at 1 µg/mL was 63% and the inhibition at 10 µg/mL came to 96%. Besides, in data set [4], the inhibition at 1 µg/mL turned out to be 34% and the inhibition at 10 µg/mL worked out at 60%.
Molecule `Cn1ccc(-c2c(-c3ccc(S(C)(=O)=O)cc3)oc3ccccc3c2=O)n1` [Example 17, 3-(N-methyl-3-pyrazolyl)-2-(4-(methylsulfonyl)phenyl)-4H-1-benzopyran-4-one] returned a melting point of 202 to 203 °C. Moreover, the inhibition at 10 µg/mL in data set [3] came to 13%. Moreover, in data set [4], the inhibition at 10 µg/mL is below 5%.
`CS(=O)(=O)c1ccc(-c2oc3ccccc3c(=S)c2-c2ccccc2)cc1` [Example 37, 2-(4-(Methylsulfonyl)phenyl)-3-phenyl-4H-1-benzopyran-4-thione] showed a melting point of 204 to 206 °C. Moreover, in data set [1] (setting [5]), the inhibition in vivo at 30 mg/kg came to 16%. In addition, in data set [3], the inhibition at 0.1 µg/mL is 47%, the inhibition at 1 µg/mL amounted to 76% and the inhibition at 10 µg/mL worked out at 88%. Also, in data set [4], the inhibition at 10 µg/mL is below 5%.
In the case of `CS(=O)(=O)c1ccc(-c2oc3ccccc3c(=O)c2-c2ccc(F)cc2)cc1` [Example 1, 3-(4-Fluorophenyl)-2-(4-(methylsulfonyl)phenyl)-4H-1-benzo-pyran-4-one], the inhibition in vivo at 50 mg/kg in data set [1] (setting [5]) amounted to 43%. In addition, the “depressant rate of ear edema, ED50” value in data set [2] is given as 0.4 mg/ear, ED50. In data set [3], the inhibition at 0.1 µg/mL turned out to be 94% and the inhibition at 1 µg/mL is 100%. In addition, the inhibition at 10 µg/mL in data set [4] was below 5%.
